Test results taken from the METLIN SMRT retention time set (Domingo-Almenara et al. 2019).

Assay: gradient 5% acetonitrile 3 min, to 50% in 2 min, to 85% in 15 min, held 3 min, 100 µL/min
Settings: column: Zorbax Extend-C18 2.1 x 50 mm; eluents: water / acetonitrile, 0.1% formic acid
Outline: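 Each retention time is based on an adduct peak selected computationally and verified by manual inspection. Measurements used HPLC–quadrupole time-of-flight mass spectrometry in positive and negative ionization mode on mixtures of ~100 pure standards. Chromatography ran on a Zorbax Extend-C18 column (2.1 × 50 mm, 1.8 μm) at 100 μL/min with water and acetonitrile, each containing 0.1% formic acid, and dead and dwell volumes of 40 μL and 900 μL.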

| RP-LC retention time | Compound |
| --- | --- |
| 1100 s | CCCN1CCCCc2cc(C(=O)NC(C)CC)sc21 (centres undefined) |
| 809 s | CCCNC(=O)N1CCCN(C2=NS(=O)(=O)C(c3ccc(CC)cc3)=C2C)CC1 |
| 554 s | CC(=O)N1CCCC(C(=O)N2CCOCC2)C1 (centres undefined) |
| 703 s | O=C(COc1cccc2ccc(N3CCOCC3)nc12)Nc1ccc(OC(F)(F)F)cc1 |
| 817 s | O=C(C1CCCCC1)N1CCN(c2nnc3ccc(C(F)(F)F)cn23)CC1 |
| 755 s | CCN1CCCn2cc(S(=O)(=O)Nc3ccc(F)c(C)c3)cc2C1=O |
| 882 s | O=c1cc(N2CCOCC2)oc2c1ccc1ccccc12 |
| 708 s | CCOC(=O)C1=C(CN2CCC(Cc3ccccc3)CC2)NC(=O)NC1c1ccco1 (centres undefined) |
| 726 s | CCOc1ccc(-c2cc(C(=O)N3CCN(c4ccccn4)CC3)c3ccccc3n2)cc1 |
| 657 s | CCNc1nc(C)cc(N2CCN(C(=O)Nc3cc(OC)cc(OC)c3)CC2)n1 |
| 1040 s | O=C(C1=CN(c2ccc(F)c(F)c2)c2ccccc2S1(=O)=O)N1CCCCC1 |
| 802 s | CN1C(=O)c2cc(C(=O)N3CCCCCC3)nn2CC1(C)C(=O)NC1CCCCCC1 (centres undefined) |
| 683 s | CC(C)CNC(=O)N1CCCCC1c1nncn1-c1ccccc1 (centres undefined) |
| 661 s | CCOC(=O)c1noc2ncnc(NCC3CCN(Cc4ccccc4F)CC3)c12 |
| 970 s | O=C(c1cccc(Cl)c1)N1CCC2(CC1)N=C(c1cccc(Br)c1)NO2 |
| 1420 s | Cc1ccc(-c2nc(C3CCN(S(=O)(=O)c4c(C)cc(C)cc4C)CC3)no2)cc1 |
| 1040 s | Cc1cc(OCC(=O)N2CCC(C)CC2)nc(-c2ccc(F)cc2)n1 |
| 739 s | Cn1ccc2cc(S(=O)(=O)N3CCC(C(=O)NCC4CCCO4)CC3)ccc21 (centres undefined) |
| 595 s | CC(C)(C)OC(=O)N1CCN(CCNC(=O)CSc2nc3ccccc3o2)CC1 |
| 657 s | Cc1ccc(-c2cc(C(=O)N3CCN(c4ccc(N5CCOCC5)nn4)CC3)[nH]n2)cc1C |
| 607 s | CCOC(=O)c1[nH]c(C)c(CCC(=O)N2CCC(C(=O)NCCCN3CCCCC3)CC2)c1C |
| 1010 s | CCc1noc(C2(NC(=O)c3ccc(Cl)cc3)CCCCC2)n1 |
| 747 s | O=C([C@@H]1C[C@H](F)CN1C(=O)Nc1cccc(Cl)c1)N1CCCCC1 |
| 1000 s | O=c1n(CCc2ccccc2)nc2c(S(=O)(=O)N3CCCCCC3)cccn12 |
| 950 s | CC(=O)N1c2ccc(S(=O)(=O)N3CCCCCC3)cc2CC1C(=O)NCc1ccccc1Cl (centres undefined) |

| RP-LC retention time | Compound |
| --- | --- |
| 710 s | CCC(C)NC(=O)C1CCCN1S(=O)(=O)c1cc2c(cc1C)NC(=O)CO2 (centres undefined) |
| 862 s | CCCNC(=O)CN1C(=O)C2CCCCN2c2ccc(S(=O)(=O)N(CC)CC)cc21 (centres undefined) |
| 626 s | CCCN(C(=O)c1ccc(Br)cc1)C1(C(=O)NCc2ccccc2)CCN(C(C)=O)CC1 |
| 853 s | Cc1sc(-c2noc(C3CC3)n2)cc1S(=O)(=O)N1CCC(C(=O)N2CCOCC2)CC1 |
| 557 s | CC1CCCN(CCNC(=O)C2CCc3nc(N4CCOCC4)ncc3C2)C1 (centres undefined) |
| 738 s | CN(CC1CCOCC1)C(=O)Nc1ccccc1C(F)(F)F |
| 877 s | COc1ccc(S(=O)(=O)N2C[C@@H](F)C[C@H]2C(=O)N2CCc3ccccc3C2)cc1 |
| 713 s | Cc1cc(=O)n(CC(=O)NC(C)CCc2ccccc2)c(N2CCOCC2)n1 (centres undefined) |
| 752 s | Cc1ccc2c(c1)C(=O)NC1(CCN(C(=O)c3cc(F)cc(F)c3)CC1)N2C |
| 645 s | Cn1c(=O)c(N2CCC(C(=O)NCCCN3CCCC3=O)CC2)nc2ccccc21 |
| 1190 s | O=C(NC1CCN(Cc2ccccc2)CC1)c1nnc(-c2ccc(S(=O)(=O)N3CCCC3)cc2)o1 |
| 681 s | COc1ccccc1NC(=O)Cn1cnc2nc(N3CCCC(C(=O)NC4CC4)C3)sc2c1=O (centres undefined) |
| 567 s | COc1ccccc1N1CCN(CCNC(=O)c2c(F)cccc2F)CC1 |
| 1130 s | COc1cccc(-c2noc(C3CCCN3C(=O)Nc3cc(Cl)ccc3OC)n2)c1 (centres undefined) |
| 802 s | Cc1cc(OCC(=O)Nc2ccc(C#N)cc2)nc(N2CCN(c3ccccc3)CC2)n1 |
| 1010 s | CCCC(CCC)C(=O)N1CCCN(C2=NS(=O)(=O)C(c3ccc(C)cc3)=C2C)CC1 |
| 880 s | Cc1nc(-c2ccccc2)cc2nn(CC(=O)NC3CCCCC3)c(=O)n12 |
| 772 s | CN(CC1CCOCC1)C(=O)Nc1ccc(Cl)cc1 |
| 649 s | CCOc1ccc(NC(=O)N2CCN(c3nc4ccccc4n3C)CC2)cc1 |
| 621 s | CCn1ccc(C(=O)Nc2c3c(nn2C)CCC3)n1 |
| 824 s | CCCNC(=O)C1CCN(S(=O)(=O)c2ccc3c(c2)sc(=O)n3CCC)CC1 |
| 981 s | Cc1ccc(Cn2c(N3CCCC(C(=O)NCc4ccccc4F)C3)nc3ccsc3c2=O)cc1 (centres undefined) |
| 1060 s | CC1CCN(c2cc(-n3cnc(C(=O)N4CCc5ccccc5C4)c3)ncn2)CC1 |
| 558 s | CCN1CCN(CCCNC(=O)C2Cn3cccc3C(=O)N2CC(C)C)CC1 (centres undefined) |
| 965 s | Cc1ccc(-c2cc(C(=O)N3CCCC3)n(C)c2)cc1 |

The remaining lines, values behind:

| Compound | RP-LC retention time |
| --- | --- |
| COc1ccc(OCC(=O)NCc2cc(-c3cc4ccccc4o3)on2)cc1 | 893 s |
| Cc1ccc(C(=O)Nc2nc(C)cc(C)c2-c2noc(C)n2)cc1 | 743 s |
| Cc1ccc(-n2ncc3c(NCCCN(C)C)ncnc32)cc1Cl | 670 s |
| COc1ccc(-c2cc(=O)c3c(O)c(OC)c(OC)cc3o2)cc1O | 906 s |
| Fc1ccc(-c2noc(-c3ccc(NC4CC4)nc3)n2)cc1 | 901 s |
| CCOCCCNC(=O)c1nc(Nc2ccc(F)cc2)c2ccccc2n1 | 746 s |
| CNC(=O)c1cc(C)nc2ccc(Cl)cc12 | 607 s |
| O=C(NC(Cc1ccccc1)c1nc2ccccc2[nH]1)c1cccs1 (centres undefined) | 607 s |
| CSc1ccc(-c2nc3cnccn3c2Nc2cccc(Cl)c2C)cc1 | 1060 s |
| COc1ccc(NC(=O)Cn2cccc2-c2nnc(-c3ccccc3)o2)cc1 | 894 s |
| O=C(/C=C/c1ccccc1)Nc1nc(-c2ccccc2)cs1 | 1070 s |
| O=C(Cn1nc2c3cc(-c4ccc(F)cc4)nn3ccn2c1=O)Nc1ccc(Br)cc1F | 989 s |
| O=C(Nc1ccc(F)cc1F)Nc1nccn(-c2ccc(F)cc2)c1=O | 942 s |
| COCCN(Cc1ccc(C)cc1)Cc1cc(=O)n2ccc(C)cc2n1 | 656 s |
| Nc1ncnc2c1ncn2C1CCCC1 | 595 s |
| Cc1cc(NS(=O)(=O)c2ccc(F)cc2C)n(C2CCS(=O)(=O)C2)n1 (centres undefined) | 753 s |
| COc1ccc(C(CNC(=O)c2cc(=O)c3cc(C)c(C)cc3o2)N(C)C)cc1 (centres undefined) | 644 s |
| CSc1ccc(CNC(=O)COc2nc(C)nc3ccccc23)cc1 | 734 s |
| COc1ccc(-c2noc(Cc3nc(-c4ccc(C)cc4)cs3)n2)cc1 | 1250 s |
| Cc1cc(C)cc(-c2nc(-c3cccc(-c4ccn[nH]4)c3)no2)c1 | 999 s |

| Compound | RP-LC retention time |
| --- | --- |
| COc1ccc(C2c3[nH]c4ccccc4c3CCN2C(=O)c2ccncc2)cc1 (centres undefined) | 877 s |
| Cn1cnc(S(=O)(=O)N2CCc3c(c(-c4nncn4Cc4ccccc4)nn3C)C2)c1 | 682 s |
| O=c1c2cc3c(cc2nc(SCc2nc(-c4ccccc4)no2)n1Cc1ccccc1)OCO3 | 1240 s |
| COc1ccc(-c2nc(C3CC(=O)N(c4ccc(OC)c(OC)c4)C3)no2)c(OC)c1 (centres undefined) | 797 s |
| COc1ccc(NC(=O)Cn2c(=O)n(-c3ccc(F)cc3)c(=O)c3c2cc(C)n3C)c(OC)c1 | 832 s |
| N#Cc1ccc(Cn2cc(C(=O)C(N)=O)c3ccccc32)cc1 | 810 s |
| CCOc1ccc(CC(=O)N2CCC3(CC2)Nc2cc(OC)ccc2-n2cccc23)cc1OCC | 1030 s |
| Cc1cc2c(cc(C(=O)NCCCc3ccccc3)n2Cc2ccc(Cl)cc2)o1 | 1270 s |
| O=C(Cc1cccs1)Nc1cccc(OCc2nnc(-c3ccccc3)o2)c1 | 905 s |
| Cc1c(F)cccc1NC(=O)N1CC(Cc2nncn2C(C)C)C1 | 659 s |
| Cc1nn(CC(=O)NCCCN2CCCC2=O)c(=O)c2cc(-c3ccccc3)nn12 | 684 s |
| Cc1ccc(NC(=O)CN2C(=O)CN(C)C(=O)c3ccccc32)c(Br)c1 | 734 s |
| CCOc1ccc(-c2noc(Cn3cnc4c(cnn4-c4cc(Cl)ccc4C)c3=O)n2)cc1OC | 1030 s |
| O=C(NCc1ccccn1)C(=O)Nc1ccc2c(c1)OCO2 | 579 s |
| CC(C)Cc1ccc(S(=O)(=O)N2CCC(c3nc4cccnc4n3C)C2)cc1 (centres undefined) | 929 s |
| CCOc1ccc(C2Cn3nnc(-c4nc(-c5cccc(Cl)c5)no4)c3CO2)cc1 (centres undefined) | 1320 s |
| O=c1cc(CSc2nc(NCc3ccc4c(c3)OCO4)c3ccccc3n2)nc2ccccn12 | 635 s |
| O=C(Nc1ccc(F)cc1)Oc1ccc[nH]c1=O | 684 s |
| Cc1oc(-c2ccc(NC(=O)Cc3ccccc3Cl)cc2)nc1Cn1cccn1 | 899 s |
